According to patent US5723462A, “Certain fused pyrrolecarboxamides a new class of GABA brain receptor ligands” (Neurogen Corporation, priority 1996, dated 1998):

System: GABA receptor
Experiment: not given
Conditions: Tallman et al., 1978; cited from earlier work

| Compound | blockade of the enhancement of benzodiazepine binding by GABA agonists |
| --- | --- |
| CN1CCc2cc3c(cc2C1C1OC(=O)c2c1ccc1c2OCO1)OCO3 (single isomer, unassigned; (+)) [(+) bicuculline] | blocked |
| CN1CCc2cc3c(cc2C1C1OC(=O)c2c1ccc1c2OCO1)OCO3 (single isomer, unassigned; (-)) [(-) bicuculline] | much less active |

Biological target: GABAa receptor
Experiment: GABAa receptor binding assay ([3H]-Flumazenil, RO15-1788 displacement, rat cortical tissue)
Conditions: 0.5 nM 3H-RO15-1788, 30 min at 4° C.
Method: The pharmaceutical utility of compounds of this invention are indicated by the following assay for GABAa receptor binding activity.
Assays are carried out as described in Thomas and Tallman (J. Bio. Chem. 156: 9838-9842, J. Neurosci. 3: 433-440, 1983). Rat cortical tissue is dissected and homogenized in 25 volumes (w/v) of 0.05M Tris HCl buffer (pH 7.4 at 4° C.). The tissue homogenate is centrifuged in the cold (4° ) at 20,000×g for 20'. The supernatant is decanted and the pellet is rehomogenized in the same volume of buffer and again centrifuged at 20,000×g. The supernatant is decanted and the pellet is frozen at -20° C. overnight. The pellet is then thawed and rehomogenized in 25 volume (original wt/vol) of buffer and the procedure is carried out twice. The pellet is finally resuspended in 50 volumes (w/vol of 0.05M Tris HCl buffer (pH 7.4 at […]).
Incubations contain […] of tissue homogenate, […] of radioligand 0.5 nM (^3 H-RO15-1788 [^3 H-Flumazenil] specific activity 80 Ci/mmol), drug or blocker and buffer to a total volume of […]. Incubations are carried for 30 min at 4° C. then are rapidly filtered through GFB filters to separate free and bound ligand. Filters are washed twice with fresh 0.05M Tris HCl buffer (pH 7.4 at 4° C.) and counted in a liquid scintillation counter. 1.0 mM diazepam is added to some tubes to determine nonspecific binding. Data are collected in triplicate determinations, averaged and % inhibition of total specific binding is calculated. Total Specific Binding=Total-Nonspecific. In some cases, the amounts of unlabeled drugs is varied and total displacement curves of binding are carried out. Data are converted to IC50 or Ki.

| Compound | Ki |
| --- | --- |
| O=C(Nc1cccnc1)c1c[nH]c2c1C(=O)CCCC2 [Compound 6, N-(3-Pyridyl)-4-oxo-1,4,5,6,7,8-hexahydro-cyclohepta[b]pyrrole-3-carboxamide] | 0.025 µM |
| CC1(C)CCc2[nH]cc(C(=O)Nc3ccsc3)c2C1=O [Compound 7, N-(3-Thienyl)-4-oxo-5,5-dimethyl-4,5,6,7-tetrahydro-1H-indole-3-carboxamide] | 0.015 µM |
| O=C(Nc1ccsc1)c1c[nH]c2c1C(=O)CCC2 [Compound 2, N-(3-thienyl)-4-oxo-4,5,6,7-tetrahydro-1H-indole-3-carboxamide] | 0.003 µM |
| O=C(Nc1ccccn1)c1c[nH]c2c1C(=O)CCC2 [Compound 4, N-(2-Pyridyl)-4-oxo-4,5,6,7-tetrahydro-1H-indole-3-carboxamide] | 0.003 µM |
| O=C(Nc1nccs1)c1c[nH]c2c1C(=O)CCCC2 [Compound 5, N-(2-Thiazolyl)-4-oxo-1,4,5,6,7,8-hexahydro-cyclohepta[b]pyrrole-3-carboxamide] | 0.002 µM |
| CC1(C)CCc2[nH]cc(C(=O)Nc3nccs3)c2C1=O [Compound 8, N-(2-Thiazolyl)-4-oxo-5,5-dimethyl-4,5,6,7-tetrahydro-1H-indole-3-carboxamide] | 0.002 µM |
| O=C(Nc1ccc2ccccc2n1)c1c[nH]c2c1C(=O)CCC2 [Compound 12, N-(2-Quinolinyl)-4-oxo-4,5,6,7-tetrahydro-1H-indole-3-carboxamide] | 0.05 µM |
| Cc1cnc2nc(NC(=O)c3c[nH]c4c3C(=O)CCC4)ccc2c1 [Compound 11] | 0.003 µM |
| COc1ccc(NC(=O)c2c[nH]c3c2C(=O)CCC3)cn1 [Compound 1] | 0.011 µM |
| COc1ccc2ccc(NC(=O)c3c[nH]c4c3C(=O)CCC4)nc2n1 [Compound 3, N-(2-methoxy-1,8-napthyridin-7-yl)-4-oxo-4,5,6,7-tetrahydro-1H-indole-3-carboxamide] | 0.066 µM |
| O=C(Nc1ccc2ccc(Cl)nc2n1)c1c[nH]c2c1C(=O)CCC2 [Compound 10, N-(2-Chloro-1,8-napthyridin-7-yl)-4-oxo-4,5,6,7-tetrahydro-1H-indole-3-carboxamide] | 0.083 µM |
| O=C(Nc1ccc2nccnc2c1)c1c[nH]c2c1C(=O)CCC2 [Compound 13, N-(6-Quinoxalinyl)-4-oxo-4,5,6,7-tetrahydro-1H-indole-3-carboxamide] | 0.064 µM |
| Cc1cnc(NC(=O)c2c[nH]c3c2C(=O)CCC3)s1 [Compound 9, N-(5-Methyl-2-thiazolyl)-4-oxo-4,5,6,7-tetrahydro-1H-indole-3-carboxamide] | 0.009 µM |
